Measured values: patent publication US8802597B2, “Herbicidal pyrimidines” (E I du Pont de Nemours and Company, priority 2003, dated 2014)
Read-outs that look alike come from different tables or passages of the source.

Key:
Assay type in all cases: in vivo
[1] = system: barnyardgrass (Echinochloa crus-galli); test: Test A pre/postemergence; settings: Echinochloa crus-galli, 240 h, read-out: Plant response rating, Barnyardgrass; for pest or weed control at 500 g/ha: 500 g ai/ha; for pest or weed control at 2000 g/ha: 2000 g ai/ha
Procedure, shortened: (§1)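 Visual injury scored 0–100 (0 = no effect, 100 = complete control) against untreated controls after about ten days in the greenhouse. Compounds, formulated in non-phytotoxic solvent plus surfactant, were applied preemergence as a directed soil spray and postemergence at the 1- to 2-leaf stage (2–10 cm).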

[2] = system: crabgrass (Digitaria sanguinalis); test: Test A pre/postemergence; settings: Digitaria sanguinalis, 240 h, read-out: Plant response rating, Crabgrass; for pest or weed control at 500 g/ha: 500 g ai/ha; for pest or weed control at 2000 g/ha: 2000 g ai/ha
Procedure, shortened: as §1

[3] = system: giant foxtail (Setaria faberi); test: Test A pre/postemergence; settings: Setaria faberi, 240 h, read-out: Plant response rating, Foxtail, Giant; for pest or weed control at 500 g/ha: 500 g ai/ha; for pest or weed control at 2000 g/ha: 2000 g ai/ha
Procedure, shortened: as §1

[4] = system: morningglory (Ipomoea spp.); test: Test A pre/postemergence; settings: Ipomoea, 240 h, read-out: Plant response rating, Morningglory; for pest or weed control at 500 g/ha: 500 g ai/ha; for pest or weed control at 2000 g/ha: 2000 g ai/ha
Procedure, shortened: as §1

[5] = system: redroot pigweed (Amaranthus retroflexus); test: Test A pre/postemergence; settings: Amaranthus retroflexus, 240 h, read-out: Plant response rating, Pigweed; for pest or weed control at 500 g/ha: 500 g ai/ha; for pest or weed control at 2000 g/ha: 2000 g ai/ha
Procedure, shortened: as §1

[6] = system: velvetleaf (Abutilon theophrasti); test: Test A pre/postemergence; settings: Abutilon theophrasti, 240 h, read-out: Plant response rating, Velvetleaf; for pest or weed control at 500 g/ha: 500 g ai/ha; for pest or weed control at 2000 g/ha: 2000 g ai/ha
Procedure, shortened: as §1

[7] = system: bermudagrass (Cynodon dactylon); test: Test C pre/postemergence; settings: Cynodon dactylon; for pest or weed control at 62 g/ha: 62 g ai/ha; for pest or weed control at 125 g/ha: 125 g ai/ha; for pest or weed control at 125 g/ha / pest or weed control at 250 g/ha / pest or weed control at 500 g/ha: scale 0 to 100; for pest or weed control at 250 g/ha: 250 g ai/ha; for pest or weed control at 500 g/ha: 500 g ai/ha
Procedure, shortened: (§2)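 Greenhouse pot test: seeds treated preemergence, or plants at 2–18 cm (1- to 4-leaf stage) treated postemergence, with compound in non-phytotoxic solvent plus surfactant. Visual rating versus untreated controls after 12–14 days, scale 0 (no effect) to 100 (complete control); dash means not tested.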

[8] = system: johnsongrass (Sorghum halepense); test: Test C pre/postemergence; settings: Sorghum halepense; for pest or weed control at 62 g/ha: 62 g ai/ha; for pest or weed control at 125 g/ha: 125 g ai/ha; for pest or weed control at 250 g/ha: 250 g ai/ha; for pest or weed control at 500 g/ha: 500 g ai/ha
Procedure, shortened: as §2

[9] = system: lambsquarters (Chenopodium album); test: Test C pre/postemergence; settings: Chenopodium album; for pest or weed control at 62 g/ha: 62 g ai/ha; for pest or weed control at 125 g/ha: 125 g ai/ha; for pest or weed control at 250 g/ha: 250 g ai/ha; for pest or weed control at 500 g/ha: 500 g ai/ha
Procedure, shortened: as §2

soybean (Glycine max) = test: Test C pre/postemergence; settings: Glycine max; for plant injury at 62 g/ha: 62 g ai/ha; for plant injury at 125 g/ha: 125 g ai/ha; for plant injury at 250 g/ha: 250 g ai/ha; for plant injury at 500 g/ha: 500 g ai/ha
Procedure, shortened: as §2

[10] = system: chickweed (Stellaria media); test: Test C postemergence; settings: Stellaria media, post-emergence
Procedure, shortened: as §2

[11] = post-emergence, Postemergence, 0 to 100 scale (0 no effect, 100 complete control)
[12] = pre-emergence, Preemergence, 0 to 100 scale where 0 is no effect and 100 is complete control, approximately ten days
[13] = pre-emergence, Preemergence, 0 to 100 scale (0 no effect, 100 complete control)
[14] = post-emergence, Postemergence, read-out: Plant response rating, Bermudagrass
[15] = pre-emergence, Preemergence, read-out: Plant response rating, Bermudagrass
[16] = post-emergence, Postemergence, scale 0 to 100 (0 no effect, 100 complete control), read-out: Johnsongrass plant response rating
[17] = post-emergence, Postemergence, scale 0 to 100, read-out: Plant response rating, Johnsongrass
[18] = pre-emergence, Preemergence, scale 0 to 100, read-out: Plant response rating, Johnsongrass
[19] = post-emergence, Postemergence, scale 0 to 100 (0 no effect, 100 complete control), read-out: Lambsquarters plant response rating
[20] = post-emergence, Postemergence, scale 0 to 100, read-out: Plant response rating, Lambsquarters
[21] = pre-emergence, Preemergence, scale 0 to 100, read-out: Plant response rating, Lambsquarters
[22] = post-emergence, Postemergence, scale 0 to 100 (0 no effect, 100 complete control), read-out: Soybean plant response rating
[23] = post-emergence, Postemergence, scale 0 to 100, read-out: Plant response rating, Soybean
[24] = pre-emergence, Preemergence, scale 0 to 100, read-out: Plant response rating, Soybean

SMILES: CCOC(=O)c1nc(C2CC2)nc(N)c1Br [Compound 1, ethyl 6-amino-5-bromo-2-cyclopropyl-4-pyrimidinecarboxylate]
- pest or weed control at 500 g/ha [1, 11]: 75%
- pest or weed control at 2000 g/ha [1, 11]: 75%
- pest or weed control at 500 g/ha [1, 12]: 60%
- pest or weed control at 2000 g/ha [1, 13]: 80%
- pest or weed control at 500 g/ha [2, 11]: 65%
- pest or weed control at 2000 g/ha [2, 11]: 80%
- pest or weed control at 500 g/ha [2, 12]: 25%
- pest or weed control at 2000 g/ha [2, 13]: 75%
- pest or weed control at 500 g/ha [3, 11]: 70%
- pest or weed control at 2000 g/ha [3, 11]: 75%
- pest or weed control at 500 g/ha [3, 12]: 40%
- pest or weed control at 2000 g/ha [3, 13]: 85%
- pest or weed control at 500 g/ha [4, 11]: 95%
- pest or weed control at 2000 g/ha [4, 11]: 100%
- pest or weed control at 500 g/ha [4, 12]: 85%
- pest or weed control at 2000 g/ha [4, 13]: 100%
- pest or weed control at 500 g/ha [5, 11]: 100%
- pest or weed control at 2000 g/ha [5, 11]: 100%
- pest or weed control at 500 g/ha [5, 12]: 85%
- pest or weed control at 2000 g/ha [5, 13]: 100%
- pest or weed control at 500 g/ha [6, 11]: 95%
- pest or weed control at 2000 g/ha [6, 11]: 85%
- pest or weed control at 500 g/ha [6, 12]: 60%
- pest or weed control at 2000 g/ha [6, 13]: 80%
- pest or weed control at 62 g/ha ([7]; post-emergence, Postemergence, scale 0 to 100 (0 no effect, 100 complete control), read-out: Bermudagrass plant response rating): 70%
- pest or weed control at 125 g/ha [7, 14]: 90%
- pest or weed control at 250 g/ha [7, 14]: 90%
- pest or weed control at 500 g/ha [7, 14]: 90%
- pest or weed control at 62 g/ha ([7]; pre-emergence, Preemergence, scale 0 to 100, 0 no effect, 100 complete control, read-out: Plant response rating, Bermudagrass): 0%
- pest or weed control at 125 g/ha [7, 15]: 50%
- pest or weed control at 250 g/ha [7, 15]: 70%
- pest or weed control at 500 g/ha [7, 15]: 90%
- pest or weed control at 62 g/ha [8, 16]: 30%
- pest or weed control at 125 g/ha [8, 16]: 30%
- pest or weed control at 250 g/ha [8, 17]: 70%
- pest or weed control at 500 g/ha [8, 17]: 70%
- pest or weed control at 62 g/ha ([8]; pre-emergence, Preemergence, scale 0 to 100, 0 no effect, 100 complete control, read-out: Plant response rating, Johnsongrass): 0%
- pest or weed control at 125 g/ha [8, 18]: 30%
- pest or weed control at 250 g/ha [8, 18]: 80%
- pest or weed control at 500 g/ha [8, 18]: 90%
- pest or weed control at 62 g/ha [9, 19]: 100%
- pest or weed control at 125 g/ha [9, 19]: 100%
- pest or weed control at 250 g/ha [9, 20]: 100%
- pest or weed control at 500 g/ha [9, 20]: 100%
- pest or weed control at 62 g/ha ([9]; pre-emergence, Preemergence, scale 0 to 100, 0 no effect, 100 complete control, read-out: Plant response rating, Lambsquarters): 95%
- pest or weed control at 125 g/ha [9, 21]: 100%
- pest or weed control at 250 g/ha [9, 21]: 100%
- pest or weed control at 500 g/ha [9, 21]: 100%
- plant injury at 62 g/ha (soybean (Glycine max); [22]): 100%
- plant injury at 125 g/ha (soybean (Glycine max); [22]): 100%
- plant injury at 250 g/ha (soybean (Glycine max); [23]): 100%
- plant injury at 500 g/ha (soybean (Glycine max); [23]): 100%
- plant injury at 62 g/ha (soybean (Glycine max); pre-emergence, Preemergence, scale 0 to 100, 0 no effect, 100 complete control, read-out: Plant response rating, Soybean): 85%
- plant injury at 125 g/ha (soybean (Glycine max); [24]): 100%
- plant injury at 250 g/ha (soybean (Glycine max); [24]): 100%
- plant injury at 500 g/ha (soybean (Glycine max); [24]): 100%
- pest or weed control at 62 g/ha ([10]; 62 g ai/ha, scale 0 to 100 (0 no effect, 100 complete control), read-out: Chickweed plant response rating): 80%
- pest or weed control at 250 g/ha ([10]; 250 g ai/ha, scale 0 to 100, read-out: Plant response rating, Chickweed): 90%
